From patent US20250152584A1, “NLRP3 INFLAMMASOME INHIBITOR AND USES THEREOF” (TransThera Sciences (Nanjing), Inc., priority 2022, published 2025)

Legend:
[1] = Pharmacokinetic study in C57BL/6J mice; assay type: in vivo; settings: mouse, plasma, C57BL/6J female mice; for Tmax: median, read-out: Tmax po (peak time of plasma concentration); for Cmax: read-out: Cmax po (peak concentration); for clearance: read-out: Cl—obs iv (clearance rate) (converted); for Vd: read-out: Vss iv (volume of distribution); for bioavailability: iv 5 mg/kg / po 10 mg/kg, read-out: F % (absolute bioavailability)
Experimental: Experimental Example 2: Pharmacokinetic Study of Compounds in C57BL/6J Mice
Compound 100, Compound 54, Compound 174, Compound 179, and Compound 253 were prepared into solutions with a mixed solvent formulated from 5% dimethyl sulfoxide, 20% (30% solutol) and 75% normal saline, respectively; the solution of each compound was administered to C57BL/6J female mice by gavage at a dose of 10 mg/kg; and the time points for blood collection were: 15 min, 30 min, 1 h, 2 h, 4 h, 6 h, 8 h and 24 h. The solution of the compound was administered to C57BL/6J female mice by intravenous bolus at a dose of 5 mg/kg, and the time points for blood collection were as follows: 5 min, 15 min, 30 min, 1 h, 2 h, 4 h, 6 h, 8 h, and 24 h.
Compound 1 was prepared into a solution with a mixed solvent formulated from 5% DME, 20% (30% solutol) and 75% normal saline; the solution of this compound was administered to C57BL/6J female mice by gavage at a dose of 10 mg/kg, and the time points for blood collection were: 15 min, 30 min, 1 h, 2 h, 4 h, 6 h, 8 h, and 24 h. The solution of the compound was administered to C57BL/6J female mice by intravenous bolus at a dose of 5 mg/kg, and the time points for blood collection were as follows: 5 min, 15 min, 30 min, 1 h, 2 h, 4 h, 6 h, 8 h, and 24 h.
Compound 195 was prepared into a solution with a mixed solvent formulated from 5% dimethyl sulfoxide, 20% PEG400 and 75% normal saline; the solution of this compound was administered to C57BL/6J female mice by gavage at a dose of 10 mg/kg; and the time points for blood collection were 15 min, 30 min, 1 h, 2 h, 4 h, 6 h, 8 h, and 24 b. The solution of the compound was administered to C57BL/6J female mice by intravenous bolus at a dose of 5 mg/kg, and the time points for blood collection were as follows: 5 min, 15 min, 30 min, 1 h, 2 b, 4 h, 6 h, 8 h, and 24 h.
(§1) Approximately 100 μL of blood was collected through the retroorbital venous plexus, and was then placed in an anticoagulant tube containing EDTA-K2. Blood samples were centrifuged at 12,000 rpm for 10 min at 4° C. to obtain plasma samples, and plasma was prepared within 30 min after blood collection. The plasma was stored in a −80° C. freezer before testing.
• 1. The samples were taken from the −80° C. freezer, thawed naturally at room temperature, and then vortexed for 5 min • 2. 10 μL of a plasma sample was precisely pipetted from different individuals into a 1.5 mL centrifuge tube. • 3. 300 μL of an internal standard working solution (the acetonitrile solution of tolbutamide) at a concentration of […] was added and mixed well. • 4. After vortexing for 5 min, the mixture was centrifuged at 12,000 rpm for 5 min. • 5. 50 μL of the supernatant was accurately pipetted into a 96-well plate preloaded with water at 150 μL/well. • 6. Vortexing was performed for 5 min for sufficient mixing, and LC-MS/MS analysis was then conducted.
(§2) The results of the concentrations of the compounds under test were output using Analyst 1.6.3 of AB. Parameters such as mean, standard deviation, coefficient of variation was calculated by Microsoft Excel (parameters directly output by Analyst 1.6.3 needed no calculation), and PK parameters were calculated by WinNonlin Phenoix 8.2 software NCA (Tmax as the median).

[2] = Pharmacokinetic study in SD male rats; assay type: in vivo; settings: rat, plasma; for clearance: read-out: Cl—obs iv (clearance rate) (converted); for Vd: read-out: Vss iv (volume of distribution); for bioavailability: iv 1.0 mg/kg / po 5.0 mg/kg, read-out: F % (absolute bioavailability); for Tmax: median, read-out: Tmax po (peak time of plasma concentration); for Cmax: read-out: Cmax po (peak concentration)
Experimental: Experimental Example 3: Pharmacokinetic Study of Compounds in SD Male Rats
Compound 54, Compound 55, Compound 174, Compound 173, and Compound 264 were prepared into solutions with a mixed solvent formulated from 5% dimethyl sulfoxide, 20% (30% solutol) and 75% normal saline, respectively; the solution of each compound was administered to SD male rats by gavage at a dose of 5.0 mg/kg; and the time points for blood collection were: 15 min, 30 min, 1 h, 2 h, 4 h, 6 h, 8 h, 10 h and 24 h. The solution of the compound was administered to male SD rats by intravenous bolus at a dose of 1.0 mg/kg, and the time points for blood collection were as follows: 5 min, 15 min, 30 min, 1 h, 2 h, 4 h, 6 h, 8 h, 10 h, and 24 h.
as §1, with “On the day before administration, the jugular vein of each animal was cannulated; and after administration, about 300” for “Approximately 100”, “jugular vein,” for “retroorbital venous plexus,”, “and” for “and was”
• 1. The samples were taken from the −80° C. freezer, thawed naturally at room temperature, and then vortexed for 5 min. • 2. 30 μL of a plasma sample was precisely pipetted into a 1.5 mL centrifuge tube. • 3. 750 μL of an internal standard working solution (the acetonitrile solution of tolbutamide) at a concentration of […] was added and mixed well. • 4. After vortexing for 5 min, the mixture was centrifuged at 12,000 rpm for 5 min. • 5. 50 μL of the supernatant was accurately pipetted into a 96-well plate preloaded with water at 150 μL/well. • 6. Vortexing was performed for 5 min for sufficient mixing, and LC-MS/MS analysis was then conducted.
as §2

[3] = po, gavage 10 mg/kg, read-out: AUClast po (area under the drug-time curve for 0-24 h)
[4] = po, gavage 10 mg/kg, read-out: tz1/2 po (terminal elimination half-life) (converted)
[5] = intravenous bolus 5 mg/kg, read-out: AUClast iv (area under the drug-time curve for 0-24 h)
[6] = intravenous bolus 5 mg/kg, read-out: tz1/2 iv (terminal elimination half-life) (converted)
[7] = intravenous bolus 1.0 mg/kg, read-out: AUClast iv (area under the drug-time curve for 0-24 h)
[8] = intravenous bolus 1.0 mg/kg, read-out: tz1/2 iv (terminal elimination half-life) (converted)
[9] = po, gavage 5.0 mg/kg, read-out: AUClast po (area under the drug-time curve for 0-24 h)
[10] = po, gavage 5.0 mg/kg, read-out: tz1/2 po (terminal elimination half-life) (converted)

CC#Cc1ccc(-c2nnc(N[C@@H]3CCCN(C)C3)cc2C)c(O)c1 [Compound 174, (R)-2-(4-methyl-6-((1-methylpiperidin-3-yl)amino)pyridazin-3-yl)-5-(prop-1-yn-1-yl)phenol]
Tmax ([1]; po, gavage 10 mg/kg): 0.5 h
AUC(0-t) [1, 3]: 20100 ng·h/mL
Cmax ([1]; po, gavage 10 mg/kg): 3160 ng/mL
half-life [1, 4]: 3.82 h
AUC(0-t) [1, 5]: 8610 ng·h/mL
clearance ([1]; intravenous bolus 5 mg/kg): 9.57 mL/min/kg
Vd ([1]; intravenous bolus 5 mg/kg): 2.64 L/kg
half-life [1, 6]: 3.95 h
bioavailability [1]: 116%
AUC(0-t) [2, 7]: 813 ng·h/mL
clearance ([2]; intravenous bolus 1.0 mg/kg): 18.2 mL/min/kg
Vd ([2]; intravenous bolus 1.0 mg/kg): 4.82 L/kg
half-life [2, 8]: 3.6 h
bioavailability [2]: 97%
Tmax ([2]; po, gavage 5.0 mg/kg): 2 h
AUC(0-t) [2, 9]: 4430 ng·h/mL
Cmax ([2]; po, gavage 5.0 mg/kg): 465 ng/mL
half-life [2, 10]: 3.51 h

C#Cc1ccc(-c2nnc(N[C@@H]3CCCN(C)C3)cc2C)c(O)c1 [Compound 54, (R)-5-ethynyl-2-(4-methyl-6-((1-methylpiperidin-3-yl)amino)pyridazin-3-yl)phenol]
Tmax ([1]; po, gavage 10 mg/kg): 1 h
AUC(0-t) [1, 3]: 4130 ng·h/mL
Cmax ([1]; po, gavage 10 mg/kg): 820 ng/mL
half-life [1, 4]: 3.04 h
AUC(0-t) [1, 5]: 2400 ng·h/mL
clearance ([1]; intravenous bolus 5 mg/kg): 30.5 mL/min/kg
Vd ([1]; intravenous bolus 5 mg/kg): 6.59 L/kg
half-life [1, 6]: 2.97 h
bioavailability [1]: 75.6%
AUC(0-t) [2, 7]: 749 ng·h/mL
clearance ([2]; intravenous bolus 1.0 mg/kg): 20.2 mL/min/kg
Vd ([2]; intravenous bolus 1.0 mg/kg): 5.01 L/kg
half-life [2, 8]: 2.97 h
bioavailability [2]: 93.1%
Tmax ([2]; po, gavage 5.0 mg/kg): 1 h
AUC(0-t) [2, 9]: 3790 ng·h/mL
Cmax ([2]; po, gavage 5.0 mg/kg): 442 ng/mL
half-life [2, 10]: 3.94 h
